Experimental data as given in patent publication US11426422B2, “SHP2 inhibitors and methods of use thereof” (Research Development Foundation, priority 2018, dated 2022).

Tested on: HFD-fed mice
Assay: insulin tolerance test in HFD-fed mice
Format: in vivo
Conditions: 60 mg/kg daily oral gavage for 6 days; male mice fed HFD 5 weeks; insulin 1 U/kg
Procedure: (FIG. 3A) Glucose tolerance test in 14 h fasted male mice fed a HFD for 5 weeks. […] At 1 day after drug treatment, glucose tolerance test was performed. Mean±SEM. (FIG. 3B) Insulin tolerance test of mice treated as described in FIG. 3A. Mean±SEM. […] The liver sections were stained with anti-IR (red) and DAPI (blue). Scale bars, 5 μm. (FIG. 3D) Quantification of the ratios of PM and IC IR signals of the livers in C (mean±SD; *p<0.0001). […] Cell lysates were blotted with the indicated antibodies.
The IR staining at the PM in liver sections from mice fed with HFD was weak, and insulin stimulation further reduced it and caused IR endocytosis (FIGS. 3C and D).
All animals were maintained in a specific antigen-free barrier facility with 12 h light/dark cycles (6 AM on and 6 PM off). Mice were fed a standard rodent chow (2016 Teklad Global 16% protein rodent diet, Harlan Laboratories). […] For glucose tolerance test, mice were fasted for 14 h, and their blood glucose levels (T=0) were measured with tail bleeding using a glucometer (AlphaTRAK®). […] Blood glucose levels were measured at 15, 30, 60, and 120 min after glucose injection. For insulin tolerance test, mice fasted for 4 h were injected intraperitoneally with recombinant human insulin (Eli Lilly) at 1 U/kg body weight, and their blood glucose levels were measured at 0, 15, 30 and 60 min after injection.

## CC1(N)CCN(c2cnc(-c3cccc(Cl)c3Cl)c(N)n2)CC1 [SHP099]
  insulin sensitivity: markedly increased
